From patent US20240409585A1, “MACROCYCLIC IMMUNOMODULATORS” (priority 2021, published 2024)
Bridge positions count the residues as written; N and C are the ends. Square brackets hold non-standard residues; d marks the D form. Peptide text beside a SMILES is read from it. * marks the point of attachment. ξ: configuration not given here. Bip = N[C@@H](Cc1ccc(-c2ccccc2)cc1)C(=O)O; Phe(4-CN) = N#Cc1ccc(C[C@H](N)C(=O)O)cc1; Ala(2-furyl) = N[C@@H](Cc1ccco1)C(=O)O; Phe(3-Me) = Cc1cccc(C[C@H](N)C(=O)O)c1; 3Pal = N[C@@H](Cc1cccnc1)C(=O)O; d3Pal = N[C@H](Cc1cccnc1)C(=O)O; Cha = N[C@@H](CC1CCCCC1)C(=O)O; Cit = NC(=O)NCCC[C@H](N)C(=O)O; Ile(3ξ) = CCC(C)[C@H](N)C(=O)O; Thr(3ξ) = CC(O)[C@H](N)C(=O)O; Carboxymethyl = O=C(O)C*; NMeA = CN[C@@H](C)C(=O)O; Dab = NCC[C@H](N)C(=O)O; Abu = CC[C@H](N)C(=O)O; Dap = NC[C@H](N)C(=O)O

Target: T1, PE-labeled human PD-L1-Ig binding to Jurkat cell line over-expressing human PD-1 (Jurkat-PD-1) (Homo sapiens, UniProt Q15116)
T1 construct: expressed in transfected cells; host or cells: Jurkat
T1 sequence (Q15116 25-288): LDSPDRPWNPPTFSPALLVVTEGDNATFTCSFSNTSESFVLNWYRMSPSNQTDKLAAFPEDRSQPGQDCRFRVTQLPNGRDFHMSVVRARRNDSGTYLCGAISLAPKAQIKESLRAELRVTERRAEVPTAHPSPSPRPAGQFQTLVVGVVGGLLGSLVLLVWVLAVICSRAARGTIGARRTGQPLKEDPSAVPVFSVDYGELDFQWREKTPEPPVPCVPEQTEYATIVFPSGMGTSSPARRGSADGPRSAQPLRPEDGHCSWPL
Experiment: Jurkat-PD-1 Cell Binding High-Content Screening Assay (CBA): Method 1
Settings: Jurkat-hPD-1 cells, PE-labeled PD-L1-Ig 20 nM final; read-out: Jurkat HPDL1 PD1 IC50 (uM) (Method 1)

Going from `CC(C)C[C@@H]1NC(=O)[C@H](CCN)NC(=O)[C@@H](CC(C)C)NC(=O)[C@H](C)N(C)C(=O)[C@H](CCCNC(=N)N)NC(=O)[C@H](Cc2ccc(-c3ccccc3)cc2)NC(=O)[C@H](C(C)C)NC(=O)[C@H](Cc2c[nH]c3ccccc23)NC(=O)[C@H](CC(=O)O)NC(=O)[C@H](Cc2ccc(C#N)cc2)NC(=O)[C@H](CN)NC(=O)CSC[C@@H](C(=O)N[C@@H](C)C(N)=O)NC(=O)[C@H]([C@@H](C)O)NC(=O)[C@H](C(C)C)NC1=O` [Compound 1444] ({CH2CO}-[Dap][Phe(4-CN)]DWV[Bip]R[NMeA][dL][Dab]LVTCA-NH2; thioether N-14) to `CC(C)C[C@@H]1NC(=O)[C@H](CCN)NC(=O)[C@@H](CC(C)C)NC(=O)[C@H](C)N(C)C(=O)[C@H](CCCNC(=N)N)NC(=O)[C@H](Cc2ccc(-c3ccccc3)cc2)NC(=O)[C@H](C(C)C)NC(=O)[C@H](Cc2c[nH]c3ccccc23)NC(=O)[C@H](CC(N)=O)NC(=O)[C@H](Cc2ccc(OCC(=O)O)cc2)NC(=O)[C@H](CC(N)=O)NC(=O)CSC[C@@H](C(=O)N[C@@H](C)C(N)=O)NC(=O)[C@H]([C@@H](C)O)NC(=O)[C@H](C(C)C)NC1=O` [Compound 1206] ({CH2CO}-NY(Carboxymethyl)NWV[Bip]R[NMeA][dL][Dab]LVTCA-NH2; thioether N-14), the IC50 rises from 0.08 µM to 0.59 µM (7.4-fold).

First: CC(C)C[C@@H]1NC(=O)CSC[C@@H](C(=O)N[C@@H](C)C(N)=O)NC(=O)[C@H]([C@@H](C)O)NC(=O)[C@H](C(C)C)NC(=O)[C@H](CC(C)C)NC(=O)[C@H](CCCNC(=N)N)NC(=O)[C@@H](CC(C)C)NC(=O)[C@H](C)N(C)C(=O)[C@H](CCCNC(=N)N)NC(=O)[C@H](Cc2ccc(-c3ccccc3)cc2)NC(=O)[C@H](C(C)C)NC(=O)[C@H](Cc2c[nH]c3ccccc23)NC(=O)[C@H](CC(=O)O)NC(=O)[C@H](Cc2ccc(O)cc2)NC1=O [Compound 1050] ({CH2CO}-LYDWV[Bip]R[NMeA][dL]RLVTCA-NH2; thioether N-14)
Second: CC[C@@H]1NC(=O)[C@H](CCCNC(=N)N)NC(=O)[C@@H](CC(C)C)NC(=O)[C@H](C)N(C)C(=O)[C@H](CCCNC(=N)N)NC(=O)[C@H](Cc2ccc(-c3ccccc3)cc2)NC(=O)[C@H](C(C)C)NC(=O)[C@H](Cc2c[nH]c3ccccc23)NC(=O)[C@H](CC(=O)O)NC(=O)[C@H](Cc2ccc(O)cc2)NC(=O)[C@H](Cc2ccccc2)NC(=O)CSC[C@@H](C(=O)N[C@@H](C)C(N)=O)NC(=O)[C@H]([C@@H](C)O)NC(=O)[C@H](C(C)C)NC1=O [Compound 1114] ({CH2CO}-FYDWV[Bip]R[NMeA][dL]R[Abu]VTCA-NH2; thioether N-14)
The IC50 of the first is 8.5-fold lower: 0.11 µM for the first, 0.93 µM for the second. The first is the more potent here.

`CC(C)C[C@@H]1NC(=O)[C@H](Cc2c[nH]c3ccccc23)NC(=O)[C@H](CC(=O)O)NC(=O)[C@H](Cc2ccco2)NC(=O)[C@H](Cc2ccccc2)NC(=O)CSC[C@@H](C(=O)N[C@@H](C)C(N)=O)NC(=O)[C@H](CO)NC(=O)[C@H](C(C)C)NC(=O)[C@H](CC(C)C)NC(=O)[C@H](CC(N)=O)NC(=O)[C@@H](C)NC(=O)[C@H](C)N(C)C(=O)[C@H](C(C)C)NC(=O)[C@H](Cc2ccc(-c3ccccc3)cc2)NC1=O` [Compound 1734] ({CH2CO}-F[Ala(2-furyl)]DWL[Bip]V[NMeA][dA]NLVSCA-NH2; thioether N-14) and `CC(C)C[C@@H]1NC(=O)[C@H](Cc2c[nH]c3ccccc23)NC(=O)[C@H](CC(=O)O)NC(=O)[C@H](Cc2ccc(OCC(=O)O)cc2)NC(=O)[C@H](Cc2ccccc2)NC(=O)CSC[C@@H](C(=O)NCC(N)=O)NC(=O)[C@H](CO)NC(=O)[C@H](C(C)C)NC(=O)[C@H](CC(C)C)NC(=O)[C@H](CC(N)=O)NC(=O)[C@@H](CC(C)C)NC(=O)[C@H](C)N(C)C(=O)[C@H](C(C)C)NC(=O)[C@H](Cc2ccc(-c3ccccc3)cc2)NC1=O` [Compound 1526] ({CH2CO}-FY(Carboxymethyl)DWL[Bip]V[NMeA][dL]NLVSCG-NH2; thioether N-14) are the same in IC50: 0.01 µM for the first, 0.01 µM for the second.

First: CC(C)C[C@@H]1NC(=O)[C@H](CCCNC(=N)N)NC(=O)[C@@H](Cc2cccnc2)NC(=O)[C@H](C)N(C)C(=O)[C@H](CCCNC(=N)N)NC(=O)[C@H](Cc2ccc(-c3ccccc3)cc2)NC(=O)[C@H](C(C)C)NC(=O)[C@H](Cc2c[nH]c3ccccc23)NC(=O)[C@H](CC(=O)O)NC(=O)[C@H](Cc2ccc(O)cc2)NC(=O)[C@H](Cc2ccccc2)NC(=O)CSC[C@@H](C(=O)N[C@@H](C)C(N)=O)NC(=O)[C@H]([C@@H](C)O)NC(=O)[C@H](C(C)C)NC1=O [Compound 1104] ({CH2CO}-FYDWV[Bip]R[NMeA][d3Pal]RLVTCA-NH2; thioether N-14)
Second: CCC(C)[C@@H]1NC(=O)[C@H](Cc2ccc(-c3ccccc3)cc2)NC(=O)[C@H](C(C)C)NC(=O)[C@H](Cc2c[nH]c3ccccc23)NC(=O)[C@H](CC(=O)O)NC(=O)[C@H](Cc2ccc(O)cc2)NC(=O)[C@H](Cc2cccnc2)NC(=O)CSC[C@@H](C(=O)N[C@@H](C)C(N)=O)NC(=O)[C@H](C(C)O)NC(=O)[C@H](C(C)C)NC(=O)[C@H](CC2CCCCC2)NC(=O)[C@H](CCN)NC(=O)[C@@H](CC(C)C)NC(=O)[C@H](C)N(C)C1=O (stereo partly drawn) [Compound 2052] ({CH2CO}-[3Pal]YDWV[Bip][Ile(3ξ)][NMeA][dL][Dab][Cha]V[Thr(3ξ)]CA-NH2; thioether N-14)
The IC50 of the first is 6.5-fold higher: 0.13 µM for the first, 0.02 µM for the second. The second is the more potent here.

First: Cc1cccc(C[C@@H]2NC(=O)[C@H](CC(=O)O)NC(=O)[C@H](Cc3ccc(OCC(=O)O)cc3)NC(=O)[C@H](C(C)O)NC(=O)CSC[C@@H](C(N)=O)NC(=O)[C@H](CCCCN)NC(=O)[C@H](C(C)C)NC(=O)[C@H](CC(C)C)NC(=O)[C@H](CC(N)=O)NC(=O)[C@@H](CC(C)C)NC(=O)[C@H](C)N(C)C(=O)[C@H](C(C)C)NC(=O)[C@H](Cc3ccc(-c4ccccc4)cc3)NC(=O)[C@H](CC(C)C)NC2=O)c1 (stereo partly drawn) [Compound 2259] ({CH2CO}-[Thr(3ξ)]Y(Carboxymethyl)D[Phe(3-Me)]L[Bip]V[NMeA][dL]NLVKC-NH2; thioether N-14)
Second: Cc1cccc(C[C@@H]2NC(=O)[C@H](CC(=O)O)NC(=O)[C@H](Cc3ccc(OCC(=O)O)cc3)NC(=O)[C@H](CN)NC(=O)CSC[C@@H](C(=O)N[C@@H](C)C(N)=O)NC(=O)[C@H](CO)NC(=O)[C@H](C(C)C)NC(=O)[C@H](CC(C)C)NC(=O)[C@H](CC(N)=O)NC(=O)[C@@H](C)NC(=O)[C@H](C)N(C)C(=O)[C@H](C(C)C)NC(=O)[C@H](Cc3ccc(-c4ccccc4)cc3)NC(=O)[C@H](CC(C)C)NC2=O)c1 [Compound 1582] ({CH2CO}-[Dap]Y(Carboxymethyl)D[Phe(3-Me)]L[Bip]V[NMeA][dA]NLVSCA-NH2; thioether N-14)
The IC50 of the first is 5-fold higher: 0.1 µM for the first, 0.02 µM for the second. The second is the more potent here.

Work on `CC(C)C[C@@H]1NC(=O)[C@H](CCCCN)NC(=O)[C@@H](CC(C)C)NC(=O)[C@H](C)N(C)C(=O)[C@H](CCCNC(N)=O)NC(=O)[C@H](Cc2ccc(-c3ccccc3)cc2)NC(=O)[C@H](C(C)C)NC(=O)[C@H](Cc2c[nH]c3ccccc23)NC(=O)[C@H](CC(=O)O)NC(=O)[C@H](Cc2ccc(O)cc2)NC(=O)[C@H](CC(N)=O)NC(=O)CSC[C@@H](C(=O)NCC(N)=O)NC(=O)[C@H](CO)NC(=O)[C@H](C(C)C)NC1=O` [Compound 1474] ({CH2CO}-NYDWV[Bip][Cit][NMeA][dL]KLVSCG-NH2; thioether N-14) yielded an IC50 of 0.08 µM.
